Test results as given in US20250084033A1, “METHOD OF PROMOTING PERACETIC ACID DECOMPOSITION USING METAL COMPOUND, AND METHOD OF CULTURING MICROORGANISMS USING SAME” (N-CELL CO.,LTD, priority 2022, published 2025).
Read-outs that look alike come from different tables or passages of the source.

Assays:
Euglena gracilis [1] = details: for absorbance of the Euglena gracilis culture solution: 680 nm; for effect on growth of Euglena gracilis (in words): acetic acid or sodium acetate 0.05-0.25% (w/v) in nutrient medium
Experimental: A nutrient medium for the cultivation of Euglena gracilis (prepared with triple-distilled water, KH2PO4, citrate, MgSO4·3H2O, vitamin B1, vitamin B6, vitamin B12, vitamin H, yeast extract, peptone, and dextrose) was autoclaved at 121° C. for 15 minutes. Sodium acetate (CH3COONa) was then added to the prepared nutrient medium at a concentration of 0.05% (w/v), and an inoculum of Euglena gracilis (KCTC AG40099) was introduced. The culture was incubated at 130 rpm, 28° C., and under light conditions of 100 μE photons/m^2/s. Growth was measured by monitoring absorbance at a wavelength of 680 nm.
The experiment was conducted in the same manner as in Example 11, except that acetic acid was added instead of sodium acetate.
The experiment was conducted in the same manner as in Comparative Example 2,except that acetic acid was added to the prepared nutrient medium at concentrations of 0.1% (w/v) (Comparative Example 3), 0.15% (w/v) (Comparative Example 4), 0.2% (w/v) (Comparative Example 5), and 0.25% (w/v) (Comparative Example 6), instead of sodium acetate.

Euglena gracilis [2] = experiment: Growth of Euglena gracilis in peracetic acid-treated medium with sodium bicarbonate (absorbance 680 nm); assay type: cell-based; details: PAA 0.05% (w/v) with or without sodium bicarbonate 0.05-0.3% (w/v)
Experimental: The growth of Euglena was measured by monitoring absorbance at a wavelength of 680 nm.

[3] = Table 3, acetic acid added, cultivation time 0 Day
[4] = Table 3, acetic acid added, cultivation time 1 Day
[5] = Table 4, sodium acetate added, cultivation time 0 Day
[6] = Table 4, sodium acetate added, cultivation time 1 Day
[7] = Table 4, sodium acetate added, cultivation time 2 Days
[8] = Table 4, sodium acetate added, cultivation time 4 Days
[9] = Table 4, sodium acetate added, cultivation time 5 Days

SMILES | absorbance of the Euglena gracilis culture solution (Euglena gracilis [1]; [3]) | absorbance of the Euglena gracilis culture solution (Euglena gracilis [1]; [4]) | absorbance of the Euglena gracilis culture solution (Euglena gracilis [1]; [5]) | absorbance of the Euglena gracilis culture solution (Euglena gracilis [1]; [6]) | absorbance of the Euglena gracilis culture solution (Euglena gracilis [1]; [7]) | absorbance of the Euglena gracilis culture solution (Euglena gracilis [1]; [8]) | absorbance of the Euglena gracilis culture solution (Euglena gracilis [1]; [9]) | also measured
CC(=O)O [Comparative Example 2, acetic acid] | 1.3738 AU | 2.1945 AU |  |  |  |  |  | absorbance of the Euglena gracilis culture solution (Euglena gracilis [1]; Table 3, acetic acid added, cultivation time 2 Days): 3.929 AU; absorbance of the Euglena gracilis culture solution (Euglena gracilis [1]; Table 3, acetic acid added, cultivation time 4 Days): 10.34 AU; absorbance of the Euglena gracilis culture solution (Euglena gracilis [1]; Table 3, acetic acid added, cultivation time 5 Days): 11.063 AU; effect on growth of Euglena gracilis (in words) (Euglena gracilis [1]): no inhibitory effect
CC(=O)O [Comparative Example 3, acetic acid] | 1.8372 AU | 1.712 AU |  |  |  |  |  | 
CC(=O)O [Comparative Example 4, acetic acid] | 1.831 AU | 1.598 AU |  |  |  |  |  | 
CC(=O)O [Comparative Example 5, acetic acid] | 1.686 AU | 1.5025 AU |  |  |  |  |  | 
CC(=O)O [Comparative Example 6, acetic acid] | 1.7554 AU | 1.5195 AU |  |  |  |  |  | 
CC(=O)[O-].[Na+] [Example 11, sodium acetate] |  |  | 1.33 AU | 2.2345 AU | 3.898 AU | 8.511 AU | 9.852 AU | 
CC(=O)[O-].[Na+] [Example 12, sodium acetate] |  |  | 1.316 AU | 2.1825 AU | 3.969 AU | 7.739 AU | 8.442 AU | 
CC(=O)[O-].[Na+] [Example 13, sodium acetate] |  |  | 1.3882 AU | 2.1605 AU | 3.861 AU | 7.52 AU | 8.561 AU | 
CC(=O)[O-].[Na+] [Example 14, sodium acetate] |  |  | 1.3602 AU | 2.1565 AU | 3.709 AU | 7.624 AU | 8.665 AU | 
CC(=O)[O-].[Na+] [Example 15, sodium acetate] |  |  | 1.4034 AU | 2.1945 AU | 3.803 AU | 7.369 AU | 8.405 AU | 
CC(=O)[O-].[Na+] [sodium acetate] |  |  |  |  |  |  |  | effect on growth of Euglena gracilis (in words) (Euglena gracilis [1]): does not inhibit the growth of Euglena
O=C([O-])O.[Na+] [sodium bicarbonate] |  |  |  |  |  |  |  | growth of Euglena gracilis (in words) (Euglena gracilis [2]): does not specifically affect the growth of Euglena gracilis
